For 18 molecules, IC50 results are on record in patent US11767322B2 (BRISTOL-MYERS SQUIBB COMPANY, priority 2020, dated 2023).

Assay [1] concerns MLKL phosphorylation in HT29-L23 human colorectal adenocarcinoma cells. The assay is described as follows: MLKL phosphorylation high-content assay. To be noted: necroptosis induced with TNFα, SMAC mimetic and Z-VAD, 6 h, maximal inhibition defined by Nec1s. The format is cell-based.
For assay [2], the target named is T1, His-GST-TVMV-hRIPK1(1-324) (Homo sapiens, UniProt Q13546).
T1 construct: The coding region of human RIPK1(1-324) flanked by NdeI site at 5′ end; made in house; host or cells: Spodoptera frugiperda Sf9 insect cells (baculovirus, Bac-to-Bac)
T1 sequence (Q13546 1-324): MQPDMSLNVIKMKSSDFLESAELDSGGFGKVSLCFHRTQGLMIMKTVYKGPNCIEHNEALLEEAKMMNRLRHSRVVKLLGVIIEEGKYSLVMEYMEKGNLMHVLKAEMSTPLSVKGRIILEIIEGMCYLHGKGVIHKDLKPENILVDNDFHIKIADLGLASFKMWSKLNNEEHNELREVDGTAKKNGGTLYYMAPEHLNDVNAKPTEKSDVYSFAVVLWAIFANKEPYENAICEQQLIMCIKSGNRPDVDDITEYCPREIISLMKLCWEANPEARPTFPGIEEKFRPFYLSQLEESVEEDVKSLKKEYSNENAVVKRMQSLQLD
The assay is described as follows: biochemical. The class given is binding. The note with it: HTRF probe displacement, 1 h at rt; read-out: RIPK1 IC50. On the technique in general: In TR-FRET formats the signal depends on donor and acceptor labels being close together.

The mark [3] stands for this setting: read-out: pMLKL IC50, HT29-L23 cells.
The mark [4] stands for this setting: Homo sapiens, read-out: pMLKL IC50, HT29-L23 cells.

Like-named read-outs stand apart in the source and are kept apart here.

On to `Cc1ccc(-c2ccn3nc(N)nc3c2)c(F)c1C(=O)NCCC(O)c1cccc(F)c1` (single isomer, unassigned) [Example 64, 3-(2-amino-[1,2,4]triazolo[1,5-a]pyridin-7-yl)-2-fluoro-N-(3-(3-fluorophenyl)-3-hydroxypropyl)-6-methylbenzamide], for which the values for the IC50 in assay [1] (setting [3]) and in assay [2] were 8 nM and 12 nM, respectively.

On to `Cc1cc(F)c(-c2ccn3nc(N)nc3c2)cc1C(=O)NCCC(O)c1ccc(Cl)cn1` (stereo not drawn) [Example 5, 5-(2-amino-[1,2,4]triazolo[1,5-a]pyridin-7-yl)-N-(3-(5-chloropyridin-2-yl)-3-hydroxypropyl)-4-fluoro-2-methylbenzamide], for which the 50% inhibitory concentration (IC50) (usually the midpoint of a concentration-inhibition curve) in assay [1] (setting [4]) stood at 2.6 nM; in assay [2] it was 6.4 nM.

Consider `Nc1nc2cc(-c3ccc(Cl)c(C(=O)NCC(F)(F)C(O)c4cc(Cl)ccc4F)c3F)ccn2n1` (stereo not drawn) [Example 180, 3-(2-amino-[1,2,4]triazolo[1,5-a]pyridin-7-yl)-6-chloro-N-(3-(5-chloro-2-fluorophenyl)-2,2-difluoro-3-hydroxypropyl)-2-fluorobenzamide], for which the IC50 in assay [1] (setting [3]) turned out to be 10 nM; in assay [2], 2 nM.

As for `Cc1ccc(-c2ccn3nc(N)nc3c2)c(F)c1C(=O)NCC(F)(F)C(C)(O)c1ccc(C(F)(F)F)cc1` (stereo not drawn) [Example 227, 3-(2-amino-[1,2,4]triazolo[1,5-a]pyridin-7-yl)-N-(2,2-difluoro-3-hydroxy-3-(4-(trifluoromethyl)phenyl)butyl)-2-fluoro-6-methylbenzamide], the IC50 was 0.7 nM in assay [1] (setting [4]) and 15 nM in assay [2].

Take `Cc1ccc(-c2ccn3nc(N)nc3c2)c(F)c1C(=O)NCCC(C)(O)c1ccc(Cl)cc1` (racemic) [Example 17, 3-(2-amino-[1,2,4]triazolo[1,5-a]pyridin-7-yl)-N-(3-(4-chlorophenyl)-3-hydroxybutyl)-2-fluoro-6-methylbenzamide]: the 50% inhibitory concentration (IC50) in assay [1] (setting [4]) came to 2.5 nM; in assay [2], 1.9 nM.

On to `Cc1ccc(-c2ccn3nc(N)nc3c2)c(F)c1C(=O)NCC(C)(F)C(O)c1ccc(F)cc1` (single isomer, unassigned) [Example 202, 3-(2-amino-[1,2,4]triazolo[1,5-a]pyridin-7-yl)-2-fluoro-N-(2-fluoro-3-(4-fluorophenyl)-3-hydroxy-2-methylpropyl)-6-methylbenzamide], for which the IC50 is 2.1 nM in assay [1] (setting [3]) and 13 nM in assay [2].

For `[2H]C([2H])([2H])c1ccc(C(O)C(F)(F)CNC(=O)c2c(C([2H])([2H])[2H])ccc(-c3ccn4nc(N)nc4c3)c2F)cc1` (single isomer, unassigned) [Example 201, 3-(2-amino-[1,2,4]triazolo[1,5-a]pyridin-7-yl)-N-(2,2-difluoro-3-hydroxy-3-(4-(methyl-d3)phenyl)propyl)-2-fluoro-6-(methyl-d3)benzamide], the IC50 in assay [1] (setting [3]) stood at 0.9 nM; in assay [2], 6.7 nM.

Consider `[2H]C([2H])([2H])c1ccc(-c2ccn3nc(N)nc3c2)c(F)c1C(=O)NCC(F)(F)C(O)(c1ccc(F)cc1)C([2H])([2H])[2H]` (single isomer, unassigned) [Example 244, 3-(2-amino-[1,2,4]triazolo[1,5-a]pyridin-7-yl)-N-(2,2-difluoro-3-(4-fluorophenyl)-3-hydroxybutyl-4,4,4-d3)-2-fluoro-6-(methyl-d3)benzamide], for which the half-maximal inhibitory concentration (IC50) in assay [1] (setting [3]) worked out at 1.2 nM; in assay [2] it was 2.7 nM.

For the molecule `Cc1cccc(C(O)C(F)(F)CNC(=O)c2c(Cl)ccc(-c3ccn4nc(N)nc4c3)c2F)c1` (stereo not drawn) [Example 174, 3-(2-amino-[1,2,4]triazolo[1,5-a]pyridin-7-yl)-6-chloro-N-(2,2-difluoro-3-hydroxy-3-(m-tolyl)propyl)-2-fluorobenzamide], the figures for the IC50 in assay [1] (setting [3]) and in assay [2] were 1.4 nM and 2.8 nM, respectively.

With `Nc1nc2cc(-c3ccc(Cl)c(C(=O)NCC(F)(F)C(O)c4cccc(Cl)c4)c3F)ccn2n1` (stereo not drawn) [Example 193, 3-(2-amino-[1,2,4]triazolo[1,5-a]pyridin-7-yl)-6-chloro-N-(3-(3-chlorophenyl)-2,2-difluoro-3-hydroxypropyl)-2-fluorobenzamide], the results for the IC50 in assay [1] (setting [3]) and in assay [2] were 15 nM and 8.7 nM, respectively.

Regarding `Cc1ccc(-c2ccn3nc(N)nc3c2)c(F)c1C(=O)NCC(F)(F)C(OP(=O)(O)O)c1ccc(F)cc1` (racemic) [Example 161, 3-(3-(2-amino-[1,2,4]triazolo[1,5-a]pyridin-7-yl)-2-fluoro-6-methylbenzamido)-2,2-difluoro-1-(4-fluorophenyl)propyl dihydrogen phosphate, racemate], the IC50 was 135 nM in assay [1] (setting [4]) and more than 15000 nM in assay [2].

On to `COC(c1ccc(F)cc1)C(F)(F)CNC(=O)c1c(C)ccc(-c2ccn3nc(N)nc3c2)c1F` (single isomer, unassigned) [Example 233, 3-(2-amino-[1,2,4]triazolo[1,5-a]pyridin-7-yl)-N-(2,2-difluoro-3-(4-fluorophenyl)-3-methoxypropyl)-2-fluoro-6-methylbenzamide], for which the half-maximal inhibitory concentration (IC50) turned out to be 0.5 nM in assay [1] (setting [3]) and 2.6 nM in assay [2].

`Cc1cc(F)c(-c2ccn3nc(N)nc3c2)cc1C(=O)NCCC(O)c1ccc(F)cc1` (stereo not drawn) [Example 8, 5-(2-amino-[1,2,4]triazolo[1,5-a]pyridin-7-yl)-4-fluoro-N-(3-(4-fluorophenyl)-3-hydroxypropyl)-2-methylbenzamide]: the IC50 in assay [1] (setting [4]) was found to be 2.3 nM; in assay [2], 5.1 nM.

Take `[2H]C([2H])([2H])c1ccc(-c2ccn3nc(N)nc3c2)c(F)c1C(=O)NCC1(C([2H])(O)c2ccc(F)cc2)CC1` (single isomer, unassigned) [Example 309, 3-(2-amino-[1,2,4]triazolo[1,5-a]pyridin-7-yl)-2-fluoro-N-((1-((4-fluorophenyl) (hydroxy)methyl-d)cyclopropyl)methyl)-6-(methyl-d3)benzamide]: the figures for the IC50 in assay [1] (setting [4]) and in assay [2] were 11 nM and 6.2 nM, respectively.

As to `Nc1nc2cc(-c3ccc(Cl)c(C(=O)NCC(F)(F)C4(c5ccc(F)cc5)COC4)c3F)ccn2n1` [Example 245, 3-(2-amino-[1,2,4]triazolo[1,5-a]pyridin-7-yl)-6-chloro-N-(2,2-difluoro-2-(3-(4-fluorophenyl)oxetan-3-yl)ethyl)-2-fluorobenzamide], the values for the IC50 in assay [1] (setting [4]) and in assay [2] were 3.7 nM and 19 nM, respectively.

For the molecule `Cc1ccc(C(O)C(F)(F)CNC(=O)c2c(Cl)ccc(-c3ccn4nc(N)nc4c3)c2F)cc1` (stereo not drawn) [Example 173, 3-(2-amino-[1,2,4]triazolo[1,5-a]pyridin-7-yl)-6-chloro-N-(2,2-difluoro-3-hydroxy-3-(p-tolyl)propyl)-2-fluorobenzamide], the IC50 in assay [1] (setting [4]) and in assay [2] was 0.9 nM throughout.

Turning to `Cc1ccc(-c2ccn3nc(N)nc3c2)c(F)c1C(=O)NCC(F)(F)[C@@H](O)c1ccc(F)cc1` (single isomer, unassigned) [Example 30], the IC50 came to 0.5 nM in assay [1] (setting [4]) and 4.5 nM in assay [2].

As to `[2H]C([2H])([2H])c1ccc(-c2ccn3nc(N)nc3c2)c(F)c1C(=O)NCC1(C(O)c2ccc(F)cc2)CC1` (single isomer, unassigned) [Example 307, 3-(2-amino-[1,2,4]triazolo[1,5-a]pyridin-7-yl)-2-fluoro-N-((1-((4-fluorophenyl) (hydroxy)methyl)cyclopropyl)methyl)-6-(methyl-d3)benzamide], the half-maximal inhibitory concentration (IC50) came to 14 nM in assay [1] (setting [4]) and 9.6 nM in assay [2].
